Data reported in EP2070932A1, “Pyrazolotriazines” (4SC AG, priority 2007, dated 2009).
Where a name gives a salt, the structure may show the parent alone. Read-outs that look alike come from different tables or passages of the source.

Test system: RKO p27 uninduced (proliferating)
Assay: Alamar Blue cell viability assay, anti-proliferative / cytotoxic activity on proliferating RKO cells
Assay type: cell-based, human
Details: for EC50: Homo sapiens, read-out: -log EC50 [mol/l] RKO p27 uninduced (proliferating) (converted)
Experimental: The anti-proliferative / cytotoxic activity of the compounds described herein can be tested on subclones of RKO human colon adenocarcinoma cells (Schmidt et al., Oncogene 19, 2423-2429; 2000) using the Alamar Blue cell viability assay (described in O'Brien et al. Eur J Biochem 267, 5421-5426, 2000). The compounds are dissolved as 10 mM solutions in DMSO and subsequently diluted in semi-logarithmic steps. DMSO dilutions are further diluted 1:100 v:v into Dulbecco's modified Eagle's medium (DMEM) containing 10% fetal calf serum to a final concentration twice as much as the final concentration in the test. RKO subclones are seeded into 96 well flat bottom plates at a density of 4000 cells per well in a volume of 50 µl per well. 24 hours after seeding the 50 µl each of the compound dilutions in DMEM medium are added into each well of the 96 well plate. Each compound dilution is tested as triplicates. Wells containing untreated control cells are filled with 50 µl DMEM medium containing 1% DMSO. The cells are then incubated with the substances for 72 hours at 37°C in a humidified atmosphere containing 5% carbon dioxide. To determine the viability of the cells, 10 µl of an Alamar Blue solution (Biosource) are added and the fluorescence is measured at an extinction of 544 nm and an emission of 590 nm. For the calculation of the cell viability the emission value from untreated cells is set as 100% viability and the emission rates of treated cells are set in relation to the values of untreated cells. Viabilities are expressed as % values. The Graphpad Prism program is used for the calculation of EC50 values for anti-proliferative / cytotoxic activity out of the obtained dose-response curves. […]

[1] = RKOp27, RKO colon cancer cells, without Ponasterone A, 72 hours incubation, Alamar Blue
[2] = RKO colon cancer cells, without Ponasterone A, 72 hours incubation, Alamar Blue

Cc1ccc(C(=O)N(CCN)C(c2nc3c(Cl)c(C)nn3c(=O)n2Cc2ccccc2)C(C)C)cc1 (racemic) [Example 2, N-(2-Amino-ethyl)-N-[(RS)-1-(3-benzyl-8-chloro-7-methyl-4-oxo-3,4-dihydro-pyrazolo[1,5-a][1,3,5]triazin-2-yl)-2-methyl-n-propyl]-4-methyl-benzamide hydrochloride]
EC50 [1]: ≤ 100 nM

Cc1ccc(C(=O)N(CCCN)C(c2nc3c(Cl)c(OC(F)F)nn3c(=O)n2Cc2ccccc2)C(C)C)cc1 (racemic) [Example 17, N-(3-Amino-n-propyl)-N-{(RS)-1-[3-benzyl-8-chloro-7-(1,1-difluoro-methoxy)-4-oxo-3,4-dihydro-pyrazolo[1,5-a] [1,3,5]triazin-2-yl]-2-methyl-n-propyl}-4-methyl-benzamide hydrochloride]
EC50 [1]: ≤ 100 nM

COc1nn2c(=O)n(Cc3ccccc3)c(C(C(C)C)N(CCCN)C(=O)c3ccc(C)cc3)nc2c1Cl (racemic) [Example 21, N-(3-Amino-n-propyl)-N-[(RS)-1-(3-benzyl-8-chloro-7-methoxy-4-oxo-3,4-dihydro-pyrazolo[1,5-a][1,3,5]triazin-2-yl)-2-methyl-n-propyl]-4-methyl-benzamide hydrochloride]
EC50 [1]: ≤ 100 nM

Cc1nn2c(=O)n(Cc3ccccc3)c(C(C(C)C)N(CCCN)C(=O)c3ccc(Cl)cc3)nc2c1Cl (racemic) [Example 5, N-(3-Amino-n-propyl)-N-[(RS)-1-(3-benzyl-8-chloro-7-methyl-4-oxo-3,4-dihydro-pyrazolo[1,5-a][1,3,5]triazin-2-yl)-2-methyl-n-propyl]-4-chloro-benzamide hydrochloride]
EC50 [1]: ≤ 100 nM

COc1ccc(C(=O)N(CCCN)C(c2nc3c(Cl)c(C)nn3c(=O)n2Cc2ccccc2)C(C)C)cc1 (racemic) [Example 15, N-(3-Amino-n-propyl)-N-[(RS)-1-(3-benzyl-8-chloro-7-methyl-4-oxo-3,4-dihydro-pyrazolo[1,5-a][1,3,5]triazin-2-yl)-2-methyl-n-propyl]-4-methoxy-benzamide hydrochloride]
EC50 [1]: ≤ 100 nM

Cc1nn2c(=O)n(Cc3ccccc3)c(C(C(C)C)N(CCCN)C(=O)c3cccc(Cl)c3Cl)nc2c1Cl (racemic) [Example 14, N-(3-Amino-n-propyl)-N-[(RS)-1-(3-benzyl-8-chloro-7-methyl-4-oxo-3,4-dihydro-pyrazolo[1,5-a][1,3,5]triazin-2-yl)-2-methyl-n-propyl]-2,3-dichloro-benzamide hydrochloride]
EC50 [1]: 100 to 1000 nM

Cc1ccc(C(=O)N(CCCN)C(c2nc3c(Cl)cnn3c(=O)n2Cc2ccccc2)C(C)C)cc1 (racemic) [Example 4, N-(3-Amino-n-propyl)-N-[(RS)-1-(3-benzyl-8-chloro-4-oxo-3,4-dihydro-pyrazolo[1,5-a][1,3,5]triazin-2-yl)-2-methyl-n-propyl]-4-methyl-benzamide hydrochloride]
EC50 [1]: ≤ 100 nM

Cc1ccc(C(=O)N(CCCN)C(c2nc3c(Cl)c(C)nn3c(=O)n2Cc2ccccc2)C(C)C)cc1 (racemic) [Example 1, N-(3-Amino-n-propyl)-N-[(RS)-1-(3-benzyl-8-chloro-7-methyl-4-oxo-3,4-dihydro-pyrazolo[1,5-a][1,3,5]triazin-2-yl)-2-methyl-n-propyl]-4-methyl-benzamide hydrochloride]
EC50 [1]: ≤ 100 nM

Cc1ccc(C(=O)N(CCCN)C(c2nc3cc(OC(F)F)nn3c(=O)n2Cc2ccccc2)C(C)C)cc1 (racemic) [Example 10, N-(3-Amino-n-propyl)-N-{(RS)-1-[3-benzyl-7-(1,1-difluoro-methoxy)-4-oxo-3,4-dihydro-pyrazolo[1,5-a] [1,3,5]triazin-2-yl]-2-methyl-n-propyl}-4-methyl-benzamide hydrochloride]
EC50 [1]: ≤ 100 nM

Cc1ccc(C(=O)N(CCCN)C(c2nc3c(Cl)c(C)nn3c(=O)n2Cc2ccccc2)C(C)C)cc1F.Cl (racemic) [Example 13, N-(3-Amino-n-propyl)-N-[(RS)-1-(3-benzyl-8-chloro-7-methyl-4-oxo-3,4-dihydro-pyrazolo[1,5-a][1,3,5]triazin-2-yl)-2-methyl-n-propyl]-3-fluoro-4-methyl-benzamide hydrocloride]
-log EC50 [mol/l] RKO p27 uninduced (proliferating) [2]: -log EC50 [mol/l] RKO p27 uninduced (proliferating) >= 7.0

Cc1ccc(C(=O)N(CCCN)C(c2nc3c(Cl)c(C)nn3c(=O)n2Cc2ccccc2)C(C)C)cc1 (racemic) [Example 1a, N-(3-Amino-n-propyl)-N-[(RS)-1-(3-benzyl-8-chloro-7-methyl-4-oxo-3,4-dihydro-pyrazolo[1,5-a][1,3,5]triazin-2-yl)-2-methyl-n-propyl]-4-methyl-benzamide]
-log EC50 [mol/l] RKO p27 uninduced (proliferating) [2]: -log EC50 [mol/l] RKO p27 uninduced (proliferating) >= 7.0

Cc1nn2c(=O)n(Cc3ccccc3)c(C(C(C)C)N(CCCN)C(=O)c3ccc(F)cc3)nc2c1Cl (racemic) [Example 6, N-(3-Amino-n-propyl)-N-[(RS)-1-(3-benzyl-8-chloro-7-methyl-4-oxo-3,4-dihydro-pyrazolo[1,5-a][1,3,5]triazin-2-yl)-2-methyl-n-propyl]-4-fluoro-benzamide hydrochloride]
EC50 [1]: 100 to 1000 nM

Cc1cccc(C(=O)N(CCCN)C(c2nc3c(Cl)c(C)nn3c(=O)n2Cc2ccccc2)C(C)C)c1 (racemic) [Example 7, N-(3-Amino-n-propyl)-N-[(RS)-1-(3-benzyl-8-chloro-7-methyl-4-oxo-3,4-dihydro-pyrazolo[1,5-a][1,3,5]triazin-2-yl)-2-methyl-n-propyl]-3-methyl-benzamide hydrochloride]
EC50 [1]: ≤ 100 nM

Cc1nn2c(=O)n(Cc3ccccc3)c(C(C(C)C)N(CCCN)C(=O)c3ccc(Cl)c(Cl)c3)nc2c1Cl (racemic) [Example 11, N-(3-Amino-n-propyl)-N-[(RS)-1-(3-benzyl-8-chloro-7-methyl-4-oxo-3,4-dihydro-pyrazolo[1,5-a][1,3,5]triazin-2-yl)-2-methyl-n-propyl]-3,4-dichloro-benzamide hydrocloride]
EC50 (RKOp27, 72 h): 100 to 1000 nM

Cc1ccc(C(=O)N(CCCCN)C(c2nc3c(Cl)c(C)nn3c(=O)n2Cc2ccccc2)C(C)C)cc1 (racemic) [Example 16, N-(4-Amino-n-butyl)-N-[(RS)-1-(3-benzyl-8-chloro-7-methyl-4-oxo-3,4-dihydro-pyrazolo[1,5-a][1,3,5]triazin-2-yl)-2-methyl-n-propyl]-4-methyl-benzamide hydrocloride]
EC50 (RKOp27, 72 h): 100 to 1000 nM

Cc1nn2c(=O)n(Cc3ccccc3)c(C(C(C)C)N(CCCN)C(=O)c3ccc(C(F)(F)F)cc3)nc2c1Cl.Cl (racemic) [Example 9, N-(3-Amino-n-propyl)-N-[(RS)-1-(3-benzyl-8-chloro-7-methyl-4-oxo-3,4-dihydro-pyrazolo[1,5-a][1,3,5]triazin-2-yl)-2-methyl-n-propyl]-trifluoromethyl-benzamide hydrochloride]
-log EC50 [mol/l] RKO p27 uninduced (proliferating) [2]: -log EC50 [mol/l] RKO p27 uninduced (proliferating) >= 7.0

Cc1ccc(C(=O)N(CCCN)C(c2nc3c(Cl)c(C)nn3c(=O)n2Cc2ccccc2)C(C)C)c(F)c1.Cl (racemic) [Example 12, N-(3-Amino-n-propyl)-N-[(RS)-1-(3-benzyl-8-chloro-7-methyl-4-oxo-3,4-dihydro-pyrazolo[1,5-a][1,3,5]triazin-2-yl)-2-methyl-n-propyl]-2-fluoro-4-methyl-benzamide hydrocloride]
-log EC50 [mol/l] RKO p27 uninduced (proliferating) [2]: -log EC50 [mol/l] RKO p27 uninduced (proliferating) >= 7.0

Cc1ccc(C(=O)N(CCCN(C)C)C(c2nc3c(Cl)c(C)nn3c(=O)n2Cc2ccccc2)C(C)C)cc1 (racemic) [Example 19, N-[(RS)-(3-Benzyl-8-chloro-7-methyl-4-oxo-3,4-dihydro-pyrazolo[1,5-a][1,3,5]triazin-2-yl)-methyl-n-propyl]-N-(3-dimethylamino-n-propyl)-4-methyl-benzamide]
-log EC50 [mol/l] RKO p27 uninduced (proliferating) [2]: -log EC50 [mol/l] RKO p27 uninduced (proliferating) >= 7.0

COc1cc2nc(C(C(C)C)N(CCCN)C(=O)c3ccc(C)cc3)n(Cc3ccccc3)c(=O)n2n1 (racemic) [Example 20, N-(3-Amino-n-propyl)-N-[(RS)-1-(3-benzyl-7-methoxy-4-oxo-3,4-dihydro-pyrazolo[1,5-a][1,3,5]triazin-2-yl)-2-methyl-n-propyl]-4-methyl-benzamide hydrochlorid]
EC50 [1]: ≤ 100 nM

Cc1nn2c(=O)n(Cc3ccccc3)c(C(C(C)C)N(CCCN)C(=O)c3ccc(Br)cc3)nc2c1Cl (racemic) [Example 8, N-(3-Amino-n-propyl)-N-[(RS)-1-(3-benzyl-8-chloro-7-methyl-4-oxo-3,4-dihydro-pyrazolo[1,5-a][1,3,5]triazin-2-yl)-2-methyl-n-propyl]-4-bromo-benzamide hydrochloride]
EC50 [1]: ≤ 100 nM
